Results from US9303009B2, “Migrastatins and uses thereof” (Sloan-Kettering Institute for Cancer Research, priority 2011, dated 2016).
Like-named read-outs stand apart in the source and are kept apart here.

How the values were obtained:
[1] = water solubility; assay type: physicochemical; settings: water with 5% methanol, aqueous with cosolvent or surfactant or cyclodextrin; in the presence of 5% methanol
[2] = system: MDA231BrM2a cells; assay: cancer cell extravasation through the blood-brain barrier after intracardiac injection; assay type: in vivo, mice; settings: 20 mg/kg intraperitoneally at days 0, 3 and 5; sacrificed 7 days after inoculation
Method: MDA231BrM2a is a human breast cancer cell line that is metastatic to the brain (Bos et al 2009). These cells stably express a triple fusion protein (thymidinekinase-GFP-luciferase) that allows detection by bioluminesce, and by immunofluorescence with anti-GFP antibodies. Cells (5×10^5 cells) were inoculated into the bloodstream of immunodeficient mice by intracardiac injection. Carboxymethyl-Migraether (cME) was administered (20 mg/kg, intraperitoneally) at days 0, 3 and 5 after injection. Mice were sacrificed 7 days after inoculation. Brains from these mice were serially sectioned (80 μm sections). Anti-GFP immunofluorescence was performed and the number of GFP(+) cells (events) per brain quantified (FIG. 1). The results establish that extravasation of these cancer cells through the blood-brain barrier (BBB) occurs during the first 7 days after inoculation. Therefore, in the experiment of FIG. 1, cME targets cells during the extravasation step.

[3] = system: MDA231BrM2a cells; assay: ex-vivo intra-brain migration assay on brain slices; assay type: cell-based, human; settings: 1 μM or 10 μM; 3 days
From the text: After extravasation through the BBB, cancer cells adhere to and migrate on the surface of brain capillaries. Prior to the present disclosure, the permeability of the BBB to cME was unknown. To investigate the ability of cME to inhibit cancer cell migration over capillaries once the cells have infiltrated the brain, we used an ex-vivo intra-brain migration assay. Brain slices from untreated mice were placed in organotypic cultures. Each slice was placed on an inertporous membrane over cell culture medium. MDA231BrM2a cells (3×10^4 cells) were plated on top of the brain slices (FIG. 2, top). After 3 days, the cancer cells had infiltrated the brain tissue mass, migrated towards capillaries (Col. IV in FIG. 2) and migrated on the capillary network of the tissue slice (FIG. 2, bottom). […] In the presence of cME, the cancer cells remained round and on the surface of the brain slice, without migrating towards and over the vascular network (FIG. 2, bottom right).

[4] = mouse pharmacokinetics, plasma HPLC-MS/MS; assay type: in vivo, mice (B6D2F1); settings: for AUC(0-t): 20 mg/kg in 2% GDM-12, read-out: AUC0-24 hr; for half-life: 20 mg/kg in 2% GDM-12, read-out: Half-life (t1/2) (converted)
Method: Groups of mix gender mice (B6D2F1) were used. Pharmacokinetics (PK) were performed on heparinized mouse plasma samples obtained typically at 0 hr, 0.17 hr, 0.5 hr, 0.75 hr, 1 hr, 2 hr, 4 hr, 8 hr, 16 hr and 24 hr after the bolus intravenous or intraperitoneal injections for CME. Samples were analyzed using a HPLC-MS/MS method. To determine the level of CME, the drug was first isolated from plasma with a sample pre-treatment. Acetonitrile were used to remove proteins in samples. An isocratic HPLC-MS/MS method was then used to separate the drugs from any potential interference. Compound levels were measured by MS detection with a multiple reaction monitoring (MRM) mode. PK data was analyzed using the WinNonlin program (ver. 5.3, Pharsight) compartmental model of analysis.
The hashed line is (A: ip) and the solid line is (B:iv) The drug was administered intravenously or intraperitoneally and the dosing strength was 20 mg/kg.

[5] = system: AC3-TGL cells; assay: human primary SCLC xenograft model, Example 15; assay type: in vivo
From the text: This Example studied whether the ME analog affects tumor metastasis in a human small cell lung cancer (SCLC) primary xenograft model. These cells in primary and subsequent in vivo passages in NOD-SCID mice formed liver metastases. The tumor cells were stably transduced with a triple-fusion protein reporter construct (AC3-TGL), and were transplanted by subcutaneous injection with matrigel into NOD/SCID IL2R gamma null (NSG) mice. Started 1 day prior the inoculation of tumor cells, ME treatment was initiated by intraperitoneal injection at 40 mg/kg (ME40) or 200 mg/kg (ME200) three times a week in groups of 5 mice. Control mice were treated with DMSO vehicle. Tumor burden and metastatic spread were monitored every 5 days by serial non-invasive bioluminescent imaging. […] At the endpoint, the potential metastatic sites (liver, lung, spleen, heart and kidney, gastrointestinal tract) were surgically resected and the luciferase activity quantified by ex-vivo bioluminescence imaging (FIG. 5b).
For the results depicted in FIGS. 5a-c, AC3-TGL cells were transplanted by subcutaneous ventral injection into NSG mice. Xenografted mice were treated with indicated dosages of ME every 3 days started from day −1 after tumor inoculation: 40 mg/kg (ME40, n=5), 200 mg/kg (ME200, n=5)) and DMSO vehicle (Control, n=5). At day 45, the mice were sacrificed. Three mice in the ME200 group died before the end of treatment, at day 23, 30 and 34. (A) Tumor growth. Every 5 days, the tumor burden was monitored by in vivo Bioluminescence Imaging (BI) and data is expressed as photon flux (flux in photon/sec)+/−SEM in log scale. (B, C) Tumor metastasis at endpoint. At day 45, mice were analyzed for metastasis by ex vivo BI quantifying luciferase activity in the excised lungs (Lu), liver (Li), heart (H), kidneys (K) and the spleen (S). Measurements for each mouse are presented on the panel B (circles), with the average per group (short line) and expressed as photon flux (flux in photon/sec) in log scale. P-values were obtained using two-tailed Mann-Whitney U-test. Pictures of bioluminescence signal measured on the organs from 1 mouse of each group are presented on the panel C. Each picture is presented with the same settings (4 min exposure; photon signal; color scale from 5.E6 (min) to 1.E8 (max)).
Xenograft Model for Example 15: A human primary SCLC xenograft model was developed in 10-14 weeks old male non-obese diabetic severe combined immunodeficient (NOD/SCID) Interleukin-2 gamma Chain Receptor Null Mice (NSG). Primary tumor samples were obtained after patient informed consent. AC3-TGL primary cells growing as clumps were processed into a single-cell suspension by Trypsin/Collagenase IV (Invitrogen) sequential treatment and filtrated as described above. Xenografts were performed by subcutaneous ventral injection of 10^3 AC3-TGL cells in serum-free medium mixed with Matrigel (Becton Dickinson). One day prior to the tumor cell injection, mice were pretreated with Migrastatin Ether (ME) compounds at a dose of either 40 mg/kg or 200 mg/kg per mouse or with DMSO vehicle control (n≧5 mice per group). […] During this time, the tumor burden and metastatic spread were monitored by bioluminescence imaging (BLI) every 5 days. At day 45 (endpoint), the mice were killed and the metastatic spread of tumor cells to the lungs, liver, heart, kidneys, spleen and GI tract was assessed by ex-vivo BLI on the removed organs.

[6] = both sexes, B6D2F1, plasma, ip, 20 mg/kg in 2% GDM-12
[7] = both sexes, B6D2F1, plasma, iv, 20 mg/kg in 2% GDM-12

SMILES | solubility [1] | reduction in the number of events (GFP(+) cells) per brain [2] | migration of cancer cells towards and over the capillary network of the brain slice [3] | AUC(0-inf) [4, 6] | Cmax [4, 6] | bioavailability [4, 6] | AUC(0-t) ([4]; both sexes, B6D2F1, plasma, ip) | half-life ([4]; both sexes, B6D2F1, plasma, ip) | AUC(0-inf) [4, 7] | Cmax [4, 7] | clearance [4, 7] | AUC(0-t) ([4]; both sexes, B6D2F1, plasma, iv) | half-life ([4]; both sexes, B6D2F1, plasma, iv) | CL ([4]; ip, 20 mg/kg in 2% GDM-12) | decrease of overall metastasis ([5]; 40 mg/kg i.p. every 3 days, day 45, vs control) | mice died before the endpoint ([5]; 200 mg/kg group of 5) | metastasis inhibition ([5]; 200 mg/kg i.p. every 3 days, day 45, 2 surviving mice) | side effects in surviving mice ([5]; 200 mg/kg, 2 surviving mice, after 45 days of treatment) | tumor growth kinetics at the primary site of injection ([5]; 40 or 200 mg/kg i.p.)
CO[C@H]1/C=C/CCCCCOC/C(C)=C\[C@@H](C)[C@@H]1OCC(=O)O [CME, Carboxymethyl migraether] | 200 to 300 µg/mL | two-fold reduction | strongly inhibited | 27900 ng·h/mL | 369 ng/mL | 77.8% | 27800 ng·h/mL | 2.4 h | 36000 ng·h/mL | 1540 ng/mL | 9.25 mL/min/kg | 35700 ng·h/mL | 2.9 h | 11.96 mL/min/kg | – | – | – | – | –
CO[C@H]1/C=C/CCCCCOC/C(C)=C\[C@@H](C)[C@@H]1O [ME, migrastatin ether] | – | – | – | – | – | – | – | – | – | – | – | – | – | – | 93% | 3 mice | 99% | no body-weight loss, lethargy or other obvious side effects | did not significantly interfere
